{"source": "patent US9493477B2", "about": "“Compositions comprising enzyme-cleavable ketone-modified opioid prodrugs and optional inhibitors thereof” (priority 2009, dated 2016)", "key": {"[1]": {"assay": "Pharmacokinetics following PO administration to rats (drug released into plasma from prodrug, or oxycodone)", "format": "in vivo, rat", "settings": "for oxycodone plasma concentrations compared to administration of oxycodone: PO prodrug versus PO oxycodone 10 mg/kg (Example 15)", "experimental": "At specified time points, blood samples were drawn, harvested for plasma via centrifugation at 5,400 rpm at 4° C. for 5 min, and 100 microliters (μl) plasma transferred from each sample into a fresh tube containing 1 μl of formic acid. The tubes were vortexed for 5-10 seconds, immediately placed in dry ice and then stored until analysis by high performance liquid chromatography/mass spectrometry (HPLC/MS).\nAt specified time points, blood samples were drawn, harvested for plasma via centrifugation at 5,400 rpm at 4° C. for 5 min, and 100 microliters (μl) plasma transferred from each sample into a fresh tube containing 2 μl of 50% formic acid. The tubes were vortexed for 5-10 seconds, immediately placed in dry ice and then stored in −80° C. freezer until analysis by HPLC/MS.\nAt specified time points, blood samples were drawn, harvested for plasma via centrifugation at 5,400 rpm at 4° C. for 5 min, and 100 μl plasma transferred from each sample into a fresh tube containing 2 μl of 50% formic acid. The tubes were vortexed for 5-10 seconds, immediately placed in dry ice and then stored in −80° C. freezer until analysis by HPLC/MS."}, "[2]": {"assay": "Pharmacokinetics following IV administration of prodrug to rats", "format": "in vivo, rat"}, "[3]": {"assay": "In vitro stability of prodrug to household chemicals and enzyme preparations", "format": "physicochemical", "settings": "vodka, baking soda, WINDEX, vinegar (RT or 80° C.) and GNC Super Digestive, tenderizer, subtilisn (RT), 1 or 24 hr", "protocol": "(§1) Samples were incubated as described and aliquots removed at 1 hr and 24 hr and stabilized by adding each to a solution of 50% or 100% of 85% phosphoric acid solution to achieve a final pH of less than or equal to pH 4. The stabilized aliquots were then diluted 4- to 6-fold with water, vortex-mixed and applied to HPLC.\nas §1, with “described. Aliquots were” for “described and aliquots”"}, "[4]": {"target": "T1, trypsin from bovine pancreas (Bos taurus, UniProt P00760)", "T1 construct": "purchased Sigma-Aldrich T8003; host or cells: bovine pancreas", "T1 sequence (P00760 24-246)": "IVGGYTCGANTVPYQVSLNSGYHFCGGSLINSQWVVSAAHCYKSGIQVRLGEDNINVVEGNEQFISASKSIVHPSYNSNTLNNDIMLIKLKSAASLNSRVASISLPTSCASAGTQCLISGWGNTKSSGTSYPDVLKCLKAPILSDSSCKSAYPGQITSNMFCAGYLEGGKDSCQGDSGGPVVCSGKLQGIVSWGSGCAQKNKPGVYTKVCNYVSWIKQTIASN", "assay": "In vitro trypsin-mediated release of drug from prodrug, without or with trypsin inhibitor Compound 109", "format": "biochemical", "experimental": "The reactions were conducted at 37° C. for 24 hr. Samples were collected at specified time points, transferred into 0.5% formic acid in acetonitrile to stop trypsin activity and stored at less than −70° C. until analysis by LC-MS/MS.\nOther reaction and sample treatment conditions were as described above."}, "[5]": {"target": "T2, human μ-opioid receptor (Homo sapiens, UniProt P35372)", "T2 sequence (P35372 whole entry)": "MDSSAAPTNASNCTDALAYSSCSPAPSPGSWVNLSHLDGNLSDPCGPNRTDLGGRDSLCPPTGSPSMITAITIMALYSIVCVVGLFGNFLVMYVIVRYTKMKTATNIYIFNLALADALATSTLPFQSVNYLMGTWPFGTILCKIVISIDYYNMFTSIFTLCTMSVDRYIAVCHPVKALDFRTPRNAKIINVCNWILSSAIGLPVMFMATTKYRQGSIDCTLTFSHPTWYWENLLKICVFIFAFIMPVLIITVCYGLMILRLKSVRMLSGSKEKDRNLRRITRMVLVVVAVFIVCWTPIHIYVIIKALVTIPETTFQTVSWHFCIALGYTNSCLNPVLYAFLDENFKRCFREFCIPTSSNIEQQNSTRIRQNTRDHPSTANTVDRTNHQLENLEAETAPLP", "assay": "In vitro human μ-opioid receptor binding assay ([3H]DAMGO, recombinant HEK-293 cells)", "settings": "from Table 8"}, "[6]": {"assay": "In vivo tolerability of Compound KC-3 IV in rats", "set-up": "species or system rat", "settings": "IV KC-3 71 mg/kg (97 μmol/kg), 4 rats dosed, observed up to 24 hours", "protocol": "Male naïve Sprague-Dawley rats, 4 per dose, were used in the study. Rats were weighed, and then placed under a heat lamp for 15-20 minutes to dilate the lateral tail veins. […] Before dosing, rats were placed in Broome restrainers and the drug was introduced into one of the tail veins using a syringe and needle. […] Blood samples were collected 5 minutes post-dose via the saphenous vein. The rats were observed up to 24 hours."}, "[7]": {"target": "T2, human μ-opioid receptor", "format": "cell-based", "set-up": "expressed in transfected cells; host or cells: CHO", "settings": "Experiment 3; EC50 ratio, oxycodone or hydrocodone to its prodrug", "experimental": "The control reaction included 1 μM DAMGO. The reaction mixtures were incubated at 37° C. for 10 min, and the reaction product was cyclic AMP (cAMP). The samples were submitted to homogeneous time resolved fluorescence (HTRF®). EC50 values (concentration producing a half-maximal specific response) were determined by non-linear regression fit using the Hillplot software."}, "[8]": {"settings": "rats, IV Compound KC-2 10 mg/kg or equimolar oxycodone, 15 minutes"}, "[9]": {"settings": "241 BAEE U trypsin/mL, no inhibitor"}, "[10]": {"settings": "4815 BAEE U trypsin/mL, no inhibitor"}}, "note": "Read-outs that look alike come from different tables or passages of the source.", "data": [{"smiles": "COc1ccc2c3c1O[C@H]1C(OC(=O)N(C)CCNC(=O)[C@H](CCCNC(=N)N)NC(C)=O)=CC[C@@]4(O)C(C2)N(C)CC[C@]314", "note": "[Compound KC-2, Oxycodone 6-(N-methyl-N-(2-N′-acetylarginylamino)) ethylcarbamate]", "values": [{"measurement": "plasma concentrations of oxycodone versus Compound KC-2 dose", "setting": "[1]; PO 1.3 to 50 mg/kg, Table 6, FIG. 9", "value": "increase proportionally"}, {"measurement": "oxycodone plasma concentrations compared to administration of oxycodone", "setting": "[1]", "value": "suppressed Cmax and delayed Tmax"}, {"measurement": "Cmax of Compound KC-2 in plasma", "setting": "[2]; IV Compound KC-2 2 mg/kg, average ± sd, 4 rats", "value": "2680 ± 755", "unit": "ng/mL"}, {"measurement": "conversion to oxycodone", "setting": "[3]", "value": "less than 10%"}, {"measurement": "Rate of oxycodone formation", "setting": "[4]; no trypsin inhibitor, 0.761 mM prodrug, 0.0228 mg/mL trypsin, 37° C.", "value": "37.4 ± 0.9", "unit": "umols/h/umol trypsin"}, {"measurement": "relative plasma/CSF partitioning coefficient to oxycodone (fold less CSF penetrant than oxycodone)", "setting": "Table 10, 439/3.8", "value": "about 116 fold"}, {"measurement": "Compound conc. in Plasma", "setting": "male, Sprague Dawley, rat, in vivo", "value": "27,200 ng/mL"}, {"measurement": "Compound conc. in CSF", "setting": "[8]", "value": 61.9, "unit": "ng/mL"}, {"measurement": "Plasma/CSF partitioning coefficient", "setting": "[8]", "value": 439}, {"measurement": "affinity for the μ-opioid receptor, fold less than that of oxycodone", "setting": "[5]", "value": "about 2 fold"}]}, {"smiles": "COc1ccc2c3c1O[C@H]1C(OC(=O)N(C)CCNC(=O)[C@H](CCCNC(=N)N)NC(=O)CC(=O)O)=CC[C@@]4(O)[C@@H](C2)N(C)CC[C@]314", "note": "[Compound KC-3, N—{(S)-4-guanidino-1-[2-(methyl-[(5R,9R,13S,14S)-4,5a-epoxy-6,7-didehydro-14-hydroxy-3-methoxy-17-methylmorphinan-6-oxy]carbonyl-amino)-ethylcarbamoyl]-butyl}-malonamic acid]", "values": [{"measurement": "plasma concentrations of oxycodone versus Compound KC-3 dose", "setting": "[1]; PO 1.4 to 46 mg/kg, Table 11, FIG. 11", "value": "increase proportionally"}, {"measurement": "Rate of oxycodone formation", "setting": "[4]; [9]", "value": "0.0684 ± 0.0009", "unit": "umol/h/ BAEE U"}, {"measurement": "Clinical observations", "setting": "[6]", "value": "2 normal and 2 with ataxia which"}, {"measurement": "relative plasma/CSF partitioning coefficient to oxycodone (fold less CSF penetrant than oxycodone)", "setting": "Table 15, 1,737/4.8", "value": "about 364 fold"}]}, {"smiles": "COc1ccc2c3c1OC1C(OC(=O)N(C)CCNC(=O)C(CCCNC(=N)N)NC(=O)CC(=O)O)=CCC4C(C2)N(C)CCC314", "note": "[Compound KC-4, N—((S)-1-{2-[(Dihydrocodein-6-enyloxycarbonyl)-methylamino]-ethylcarbamoyl-4-guanidino}-butyl)-malonamic acid]", "values": [{"measurement": "KC-4 Cmax ± sd", "setting": "[2]; IV KC-4 2 mg/kg ([…])", "value": "3960 ± 570", "unit": "ng/mL"}, {"measurement": "Rate of hydrocodone formation", "setting": "[4]; [9]", "value": "0.0911 ± 0.015", "unit": "umol/h/ BAEE U"}, {"measurement": "Rate of hydrocodone formation", "setting": "[4]; [10]", "value": "0.0137 ± 0.0014", "unit": "umol/h/ BAEE U"}, {"measurement": "Drug/prodrug relative potency", "setting": "[7]", "value": 15}]}, {"smiles": "COc1ccc2c3c1O[C@H]1C(OC(=O)N(CCCCCC(=O)O)CCNC(=O)[C@H](CCCNC(=N)N)NC(C)=O)=CC[C@@]4(O)[C@@H](C2)N(C)CC[C@]314", "note": "[Compound KC-5, 6-{[2-(2-Acetylamino-5-guanidino-pentanoylamino)-ethyl]-[(5R,9R,13S,14S)-4,5a-epoxy-6,7-didehydro-14-hydroxy-3-methoxy-17-methylmorphinan-6-oxy]-1-enyloxycarbonyl-amino}-hexanoic acid]", "values": [{"measurement": "oxycodone plasma concentrations compared to administration of oxycodone", "setting": "[1]", "value": "suppressed Cmax and AUC and delayed Tmax"}, {"measurement": "Rate of oxycodone formation", "setting": "[4]; [9]", "value": "0.135 ± 0.005", "unit": "umol/h/ BAEE U"}, {"measurement": "relative plasma/CSF partitioning coefficient to oxycodone (fold less CSF penetrant than oxycodone)", "setting": "Table 22, 1,508/4.8", "value": "about 316 fold"}]}, {"smiles": "COc1ccc2c3c1O[C@H]1C(OC(=O)N(C)C[C@H](NC(=O)[C@H](CCCNC(=N)N)NC(C)=O)C(=O)N(C)CC(=O)O)=CC[C@@]4(O)[C@@H](C2)N(C)CC[C@]314", "note": "[Compound KC-6]", "values": [{"measurement": "oxycodone plasma concentrations compared to administration of oxycodone", "setting": "[1]", "value": "suppressed Cmax and AUC and delayed Tmax"}, {"measurement": "Rate of oxycodone formation", "setting": "[4]; [9]", "value": "0.0118 ± 0.0042", "unit": "umol/h/ BAEE U"}, {"measurement": "Rate of oxycodone formation", "setting": "[4]; [10]", "value": "0.00571 ± 0.0002", "unit": "umol/h/ BAEE U"}, {"measurement": "relative plasma/CSF partitioning coefficient to oxycodone (fold less CSF penetrant than oxycodone)", "setting": "Table 25, 815/4.8", "value": "about 171 fold"}]}]}
